US20030196279A1, “Single-bath biopreparation and dyeing of textiles” (Novozymes North America, Inc., priority 1999, published 2003)

Experiments:
[1] = test system: pectate lyase; assay: Compatibility of pectate lyase with dyes, vibration viscometry assay on polygalacturonic acid; format: biochemical; conditions: 0.5 ml of 10 g/l dye solution added; pH 8.5, 40° C., 20 minutes; relative to none-dye control
Experimental: An analytical assay is used in compatibility tests. Prior to this assay, 5 mM phosphate buffer pH 8.5 is made up using KH2PO4 and NaOH (both from Fisher). The other solutions are constituted as follows:
i) The substrate is polygalacturonic acid in sodium salt form (from SIGMA). The substrate solution is made up to 11.436 g/l by dissolving polygalacturonic acid sodium salt in the phosphate buffer.
ii) Dye solutions are made up to 10 g/l by dissolving a commercial dye in the phosphate buffer.
iii) An internal standard pectate lyase (2600 APSU/g) is used. The enzyme solution is made up to 500 APSU/ml by dissolving the pectate lyase in the phosphate buffer.
During the assay, 3.5 ml substrate solution was pipetted into each tube. 0.5 ml of a dye solution or buffer was added and mixed well. The tube was then preheated in 40° C. water bath for 5 minutes. A total of 0.5 ml solution, including enzyme, and buffer was added using Hamilton Micro Lab 900. In dye compatibility, the 0.5 ml solution was made up with 40 μl enzyme solution and 460 μl buffer. For standard curve, 0-90 μl enzyme solution was used. Once enzyme was added, the solution was mixed immediately and the tube incubated at 40° C. for 20 minutes. The viscosity was then measured after putting the tube on a vibration viscometer (Sofraser Viscometer-mivi 3000, from France) for 10 seconds. At all conditions, experiments were performed in duplicate.
A standard linear curve was obtained within 0-5 APSU/ml pectate lyase concentration range (0-45 μl enzyme solution added). The correlation is given in the equation below: […]
Since the Y was obtained from experimental measurements, X was then calculated using the above equation. The enzyme activity with the addition of dye was compared to the activity of none-dye control. The relative activity is illustrated in Table 13. […] Since the chromophore structure of reactive dye shares similar chemical structure of direct dye and other dye classes, similar compatibility results may be expected for other dye classes. […] Since commercial dyes are not pure and often contains salt, the positive impact may be due to the salt in dye formula.

[2] = test system: pectate lyase activity on woven cotton fabric; conditions: Example 5; 2000 APSU/kg pectate lyase, pH 9.2, 60° C., 30 minutes, woven fabric 480U
Experimental: A buffer containing 2 mM borate at pH 9.2 and 1 g/l nonionic surfactant Tergitol 15-S-12 was prepared. The solution was transferred to Labomat beakers (Werner-Mathis USA, Inc., NC). […] Swatches of a woven fabric (type 480U from Testfabrics, Inc., PA) were then added to the beakers so that the liquor-to-fabric ratio was 10 ml/g. After the temperature was raised to 60° C., 2000 APSU/kg fiber of pectate lyase were added and the fabric was incubated at 60° C. for 30 minutes. The swatches were then removed and rinsed twice in hot and cold water.
The amount of residual pectic substances remaining on the fabric was determined by measuring the color strength of the fabric dyed with Ruthenium red, a dye with an affinity for pectic substances. For the Ruthenium red assay, a fresh solution was prepared containing 0.2 g/l Ruthenium red, 1.0 g/l ammonium chloride, 2.5 ml/l 28% ammonium hydroxide solution, 1.0 g/l Silwet L-77 (Wetter, Polyalkyleneoxide modified heptamethyltrisiloxane), and 1.1 g/l Tergitol 15-S-12. The solution was used at a ratio of 100 ml solution/gram of fabric. Fabric swatches were dyed at room temperature in Labomat beakers for 15 minutes and then rinsed with cold water. After drying, the color of swatches was assessed by measuring the reflectance of the Ruthenium red-dyed fabric on Macbeth color eye at 540 nm, and the dye on the fabric was calculated as K/S value.

[3] = Wetting test, water drop test, AATCC Test Method 79-1992; conditions: Example 10; added to pectinase biopreparation and dyeing solution
Experimental: The wetting test was performed using water according to AATCC Test Method 79-1992. Five measurements were taken from each of three areas along the fabric in this water drop test. Color measurements were made using reflectance Macbeth Color Eye System with Optiview 1.7 software, using 10° standard observer and illuminant D65, which represents average daylight over range of 380-830 nm. Ten measurements at different positions of fabric tube were carried out.

| Compound | % Activity (relative pectate lyase activity) [1] [%] | other results |
| --- | --- | --- |
| C=C(Br)C(=O)Nc1ccc(N=Nc2c(NC)ccc3cc(S(=O)(=O)[O-])cc(O)c23)c(S(=O)(=O)[O-])c1.[Na+].[Na+] [Lanasol Red 5B] | 117.6 |  |
| O=S(=O)([O-])[O-].[Na+].[Na+] [sodium sulfate] |  | sodium sulfate concentration at which a minimum amount of pectic residue was left on the fabric [2]: about 20 g/l |
| O=P(O)(O)OP(=O)(O)OP(=O)(O)O [sodium tripoly phosphate (STPP), sodium tripoly phosphate] |  | wettability (wetting time in the drop test, FIG. 2) [3]: better wettability |
| cellulase |  | wettability (wetting time in the drop test, FIG. 2) [3]: better wettability |

More lines, main results first:

| % Activity (relative pectate lyase activity) [1] [%] | Compound | other results |
| --- | --- | --- |
| 114.8 | Nc1c(N=Nc2ccc(S(=O)(=O)CCOS(=O)(=O)[O-])cc2)c(S(=O)(=O)[O-])cc2cc(S(=O)(=O)[O-])c(N=Nc3ccc(S(=O)(=O)CCOS(=O)(=O)[O-])cc3)c(O)c12.[Na+].[Na+].[Na+].[Na+] [Remazol Black B] |  |
| 200.9 | Nc1c(S(=O)(=O)[O-])cc(Nc2cccc(S(=O)(=O)CCOS(=O)(=O)[O-])c2)c2c1C(=O)c1ccccc1C2=O.[Na+].[Na+] [Remazol Br. Blue R Spec.] |  |
| 110.1 | CC(=O)Nc1ccc2cc(S(=O)(=O)O)c(N=Nc3ccc(S(=O)(=O)CCOS(=O)(=O)O)cc3)c(O)c2c1.[Na] [Remazol Br. Orange 3R] |  |
